Measurements as given in patent US5858980A, “Peptide fragments of myelin basic protein” (Autoimmune, Inc., priority 1995, dated 1999).

Columns and labels:
[1] = test system: short term T-cell lines from peripheral blood mononuclear cells; assay: T-cell line reactivity to MBP, PLP and MBP peptides (proliferation assay); format: cell-based, human; settings: for mean frequency of T-cell lines reactive to the peptide, MS vs controls (FIG. 1): MS patients compared with combined normal and other neurologic disease controls; for MEAN FREQUENCY Ag REACTIVE LINES: mean +/- SEM
Procedure: A rapid T-cell cloning technique was used to examine whether there were immunodominant epitopes on human MBP reactive with Class II MHC phenotypes and the frequency of such reactivity. A total of 15,824 short term T-cell lines were generated from 51 human subjects by culturing peripheral blood mononuclear cells ([…]) with purified MBP (100 μg) followed 3 days later, and then every 3-4 days, by the addition of interleukin-2 (IL-2; from ABI, Columbia, Md.) and 2 units recombinant interleukin-4 (IL-4; Genzyme, Boston, Mass.). On Day 13 of culture, an aliquot from each line was tested for reactivity to MBP using the following proliferation assay: T-cell clones (1×10^5 cells/well) were plated in triplicate and cocultured with appropriate stimuli (i.e. 100 μg whole MBP or 5% IL-2) for 72 hours at 37° C., 90% humidity, 5% CO2, in 96 well flat bottomed microtiter plates (Costar). The cells were pulsed with 2 μCi [^3 H]TdR (2 Ci/mmole, New England Nuclear, Boston, Mass.) for the last 18 hours of culture. APCs were prepared by pulsing human Epstein-Barrvirus transformed human B-cells (the virus being commercially available from ATCC) or L-cells which are mouse cells transfected with human DR2 (L-cells are commercially available from ATCC under accession No. ATCC-CCL1 and can be transfected according to the method of Wilkinson, D. et al, J. Exp. Med., 1988, 167:1442-1458 using DNA encoding DR2 as per Wu, S. et al J. Immunol., 1987, 138:2953). B-cells or L-cells were used at 1×10^6 cells/well in complete media either in the presence or absence of 40 pM MBP or phospholipid protein (PLP) for 2 hours at 37° C., washing twice with 4° C. Hanks (Whittaker), followed by irradiation with 5000 rad. at 4° C. To stimulate T-cells without accessory APCs, 2 μM of MBP, PLP, or the appropriate fragment was added directly to the cells for the duration of the culture: 48 hours, followed by pulsing […] and then harvesting. Ten thousand APC's were used for 100,000 T-cell clones.
T-cell lines shown to be reactive to MBP or PLP were then tested using the same technique for reactivity to overlapping oligopeptide 20-mers encompassing the human MBP sequence as shown in Table 1 above. MBP and PLP reactivity frequency analysis was performed on patients with definite, relapsing-remitting MS (as diagnosed by Magnetic Resonance Imaging (MRI) and clinical examination), as well as on subjects with other neurologic diseases and on normal subjects (all age- and sex-matched to the MS patients).

actively induced EAE = assay: suppression of actively induced EAE (MBP/CFA immunization); format: in vivo, Lewis rats
[2] = other neurological disease (n = 10)

## 143-168: human MBP fragment of amino acids 143-168, second immunodominant domain (RHGSKYLATASTMDHARHGFLPRHRD; UniProt P02686 143-168, looked up, fragment)
[1]
  mean frequency of T-cell lines reactive to the peptide, MS vs controls (FIG. 1): both MS and control subjects showed high frequencies
[1]; cell lines from patients with MS
  MBP-reactive cell lines that reacted with either MBP residues 84-102 or 143-168: 70-80%
[1]; control groups
  MBP-reactive T-cell lines that recognized either the 84-102 or the 143-168 peptide: about 34%
[1]; subject NS-dd, stimulus IL-2
  Peptide Reactivity (Fraction of MBP-Reactive Lines): 1/2
[1]; subject NS-dd, stimulus MBP
  Peptide Reactivity (Fraction of MBP-Reactive Lines): 6/12
[1]; subject NS-jl, stimulus IL-2
  Peptide Reactivity (Fraction of MBP-Reactive Lines): 5/12
[1]; subject NS-kw, stimulus MBP
  Peptide Reactivity (Fraction of MBP-Reactive Lines): 5/8
[1]; subject five, stimulus IL-2
  Peptide Reactivity (Fraction of MBP-Reactive Lines): 5/6
[1]; subject five, stimulus MBP
  Peptide Reactivity (Fraction of MBP-Reactive Lines): 6/7
[1]; subject seven, stimulus IL-2
  Peptide Reactivity (Fraction of MBP-Reactive Lines): 2/3
[1]; subject seven, stimulus MBP
  Peptide Reactivity (Fraction of MBP-Reactive Lines): 5/8
[1]; subject six, stimulus IL-2
  Peptide Reactivity (Fraction of MBP-Reactive Lines): 1/2
[1]; subject three, stimulus IL-2
  Peptide Reactivity (Fraction of MBP-Reactive Lines): 2/2
[1]; subject three, stimulus MBP
  Peptide Reactivity (Fraction of MBP-Reactive Lines): 2/2
[1]; subject two, stimulus IL-2
  Peptide Reactivity (Fraction of MBP-Reactive Lines): 4/4
[1]; subject two, stimulus MBP
  Peptide Reactivity (Fraction of MBP-Reactive Lines): 8/10

## HHPARTAHYGSLPQKSEGRT [61-82, human MBP amino acid residues 61-82]
[1]
  mean frequency of T-cell lines reactive to the peptide, MS vs controls (FIG. 1): Significant but less striking increases

## guinea pig MBP peptide 131-150: control guinea pig MBP peptide (DYKSKGFKGAHDAQGTLSKI; UniProt P25188 131-150, looked up, fragment)
Actively induced EAE; intravenous administration prior to immunization (FIG. 7)
  suppression of EAE via IV tolerization: did not suppress
Actively induced EAE; oral administration prior to immunization (FIG. 7)
  suppression of EAE via oral tolerization: did not suppress

B1: PLP: proteolipid protein, myelin autoantigen (protein, UniProt P60201 2-277, looked up)
Myelin proteolipid protein: GLLECCARCLVGAPFASLVATGLCFFGVALFCGCGHEALTGTEKLIETYFSKNYQDYEYLINVIHAFQYVIYGTASFFFLYGALLLAEGFYTTGAVRQIFGDYKTTICGKGLSATVTGGQKGRGSRGQHQAHSLERVCHCLGKWLGHPDKFVGITYALTVVWLLVFACSAVPVYIYFNTWTTCQSIAFPSKTSASIGSLCADARMYGVLPWNAFPGKVCGSNLLSICKTAEFQMTFHLFIAAFVGAAATLVSLLTFMIAATYNFAVLKLMGRGTKF
[1]; MS patients (n = 23)
  #Ag REACTIVE LINES / TOTAL # LINES: 20/432
[1]; MS patients (n = 23), per-subject reactive/total lines
  MEAN FREQUENCY Ag REACTIVE LINES: 3.34 ± 1.56
[1]; [2]
  #Ag REACTIVE LINES / TOTAL # LINES: 3/384
  MEAN FREQUENCY Ag REACTIVE LINES: 0.9 ± 0.62
